# From patent publication US20250206732A1, “COMPOUNDS AND METHODS FOR THE TARGETED DEGRADATION OF KRAS” (Arvinas Operations, Inc., priority 2022, published 2025)
# Biological target: T1, AsPC-1 HiBiT-KRASG12D (Homo sapiens, UniProt P01116, G12D)
# T1 construct: insert the HiBiT tag onto the N-terminus of one or more of the endogenous KRAS alleles; endogenous in cells; host or cells: AsPC-1 (ATCC CRL-1682), CRISPR-Cas9 knock-in clone, one tagged allele
# Test: HiBiT degradation assay (G12D), AsPC-1 HiBiT-KRASG12D cells
# Format: cell-based
# Conditions: 24 hours treatment; for Dmax: ASPC1, AsPC-1 HiBiT-KRASG12D cells, maximum degradation observed; for DC50: AsPC-1 HiBiT-KRASG12D cells, HiBiT luminescence
# Summary of the method: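 AsPC-1 cells carried a CRISPR knock-in of an N-terminal HiBiT tag on endogenous KRAS G12D. After 24 h compound treatment at 37 °C (triplicate), viability was read by alamar blue (4 h, fluorescence, normalized to DMSO). HiBiT-KRAS levels were then measured by Nano-Glo HiBiT lytic luminescence after 45 min at room temperature.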
# T1 sequence (P01116 1-188 isoform P01116-2 G12D): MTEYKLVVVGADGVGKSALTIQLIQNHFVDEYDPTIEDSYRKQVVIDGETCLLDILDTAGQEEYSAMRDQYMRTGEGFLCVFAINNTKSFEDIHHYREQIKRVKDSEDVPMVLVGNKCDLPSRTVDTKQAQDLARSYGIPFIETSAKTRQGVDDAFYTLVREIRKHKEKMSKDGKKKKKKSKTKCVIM
SMILES,Dmax,DC50
"CCc1cccc2cc(O)cc(-c3ncc4c(N5CC6CCC(C5)N6)nc(OCCN5C[C@@H]6CN(c7cc(C(C(=O)N8C[C@H](O)C[C@H]8C(=O)N[C@@H](C)c8ccc(-c9scnc9C)cc8)C(C)C)on7)C[C@@H]6C5)nc4c3F)c12 (single isomer, unassigned) [Compound 79, (2S,4R)-1-[(2R*)-2-{3-[(3aR,6aS)-5-{2-[(4-{3,8-diazabicyclo[3.2.1]octan-3-yl}-7-(8-ethyl-3-hydroxynaphthalen-1-yl)-8-fluoropyrido[4,3-d]pyrimidin-2-yl)oxy]ethyl}-octahydropyrrolo[3,4-c]pyrrol-2-yl]-1,2-oxazol-5-yl}-3-methylbutanoyl]-4-hydroxy-N-[(1S)-1-[4-(4-methyl-1,3-thiazol-5-yl)phenyl]ethyl]pyrrolidine-2-carboxamide]",80 to 100%,< 600 nM
"CCc1cccc2cc(O)cc(-c3ncc4c(N5CC6CCC(C5)N6)nc(OC[C@@H]5CC[C@@H](COC(=O)N6CCN(c7cc([C@@H](C(=O)N8C[C@H](O)C[C@H]8C(=O)N[C@@H](C)c8ccc(-c9scnc9C)cc8)C(C)C)on7)[C@H](C)C6)N5C)nc4c3F)c12 [Compound 298, [(2S,5S)-5-[[4-(3,8-diazabicyclo[3.2.1]octan-3-yl)-7-(8-ethyl-3-hydroxy-1-naphthyl)-8-fluoro-pyrido[4,3-d]pyrimidin-2-yl]oxymethyl]-1-methyl-pyrrolidin-2-yl]methyl (3R)-4-[5-[(1S)-1-[(2S,4R)-4-hydroxy-2-[[(1S)-1-[4-(4-methylthiazol-5-yl)phenyl]ethyl]carbamoyl]pyrrolidine-1-carbonyl]-2-methyl-propyl]isoxazol-3-yl]-3-methyl-piperazine-1-carboxylate]",,> 3000 nM
"C#Cc1c(F)ccc2cc(O)cc(-c3ncc4c(N5CC6CCC(C5)N6)nc(OCCN5CCC(C6CCN(c7cc([C@@H](C(=O)N8C[C@H](O)C[C@H]8C(=O)N[C@@H](C)c8ccc(-c9scnc9C)cc8)C(C)C)on7)CC6)CC5)nc4c3F)c12 [Compound 177, (2S,4R)-1-[(2S)-2-[3-(1′-{2-[(4-{3,8-diazabicyclo[3.2.1]octan-3-yl}-7-(8-ethynyl-7-fluoro-3-hydroxynaphthalen-1-yl)-8-fluoropyrido[4,3-d]pyrimidin-2-yl)oxy]ethyl}-[4,4′-bipiperidin]-1-yl)-1,2-oxazol-5-yl]-3-methylbutanoyl]-4-hydroxy-N-[(1S)-1-[4-(4-methyl-1,3-thiazol-5-yl)phenyl]ethyl]pyrrolidine-2-carboxamide]",60 to 80%,< 600 nM
"CCc1cccc2cc(O)cc(-c3ncc4c(N5CC6CCC(C5)N6)nc(OCCN5CCN(c6cc([C@H](C(=O)N7C[C@H](O)C[C@H]7C(=O)N[C@@H](C)c7ccc(-c8scnc8C)cc7)C(C)C)on6)CC5)nc4c3F)c12 (relative stereo) [Compound 134, (2S,4R)-1-[(2R*)-2-[3-(4-{2-[(4-{3,8-diazabicyclo[3.2.1]octan-3-yl}-7-(8-ethyl-3-hydroxynaphthalen-1-yl)-8-fluoropyrido[4,3-d]pyrimidin-2-yl)oxy]ethyl}piperazin-1-yl)-1,2-oxazol-5-yl]-3-methylbutanoyl]-4-hydroxy-N-[(1S)-1-[4-(4-methyl-1,3-thiazol-5-yl)phenyl]ethyl]pyrrolidine-2-carboxamide]",20 to 60%,1000 to 3000 nM
CCc1cccc2cc(O)cc(-c3ncc4c(N5CC6CCC(C5)N6)nc(OC[C@@]56CCCN5[C@H](COC(=O)N5CCN(c7cc([C@H](C(=O)N8C[C@H](O)C[C@H]8C(=O)N[C@@H](C)c8ccc(-c9scnc9C)cc8)C(C)C)on7)CC5)CC6)nc4c3F)c12 (stereo in doubt) [Compound 7],,< 600 nM
Cc1ncsc1-c1ccc([C@H](C)NC(=O)[C@@H]2C[C@@H](O)CN2C(=O)[C@@H](c2cc(OC3CN(C(=O)OC[C@@H]4CC[C@@H](COc5nc(N6CC7CCC(C6)N7)c6cnc(-c7cc(O)cc(Cl)c7C7CC7)c(F)c6n5)N4C)C3)no2)C(C)C)cc1 [Compound 285],80 to 100%,< 600 nM
"Cc1ncsc1-c1ccc([C@H](C)NC(=O)[C@@H]2C[C@@H](O)CN2C(=O)[C@@H](c2cc(OC[C@@H]3CC[C@]4(COc5nc(N6CC7CCC(C6)N7)c6cnc(-c7cccc8ccc(F)c(F)c78)c(F)c6n5)CCCN34)no2)C(C)C)cc1 [Compound 61, (2S,4R)-1-[(2R)-2-(3-{[(3S,7aS)-7a-{[(4-{3,8-diazabicyclo[3.2.1]octan-3-yl}-7-(7,8-difluoronaphthalen-1-yl)-8-fluoropyrido[4,3-d]pyrimidin-2-yl)oxy]methyl}-hexahydro-1H-pyrrolizin-3-yl]methoxy}-1,2-oxazol-5-yl)-3-methylbutanoyl]-4-hydroxy-N-[(1S)-1-[4-(4-methyl-1,3-thiazol-5-yl)phenyl]ethyl]pyrrolidine-2-carboxamide]",80 to 100%,< 600 nM
"CCc1cccc2cc(O)cc(-c3ncc4c(N5CC6CCC(C5)N6)nc(OCCN5CCN(CC6CN(c7cc([C@@H](C(=O)N8C[C@H](O)C[C@H]8C(=O)N[C@@H](C)c8ccc(-c9scnc9C)cc8)C(C)C)on7)C6)CC5)nc4c3F)c12 [Compound 221, (2S,4R)-1-[(2S)-2-(3-{3-[(4-{2-[(4-{3,8-diazabicyclo[3.2.1]octan-3-yl}-7-(8-ethyl-3-hydroxynaphthalen-1-yl)-8-fluoropyrido[4,3-d]pyrimidin-2-yl)oxy]ethyl}piperazin-1-yl)methyl]azetidin-1-yl}-1,2-oxazol-5-yl)-3-methylbutanoyl]-4-hydroxy-N-[(1S)-1-[4-(4-methyl-1,3-thiazol-5-yl)phenyl]ethyl]pyrrolidine-2-carboxamide]",,> 3000 nM
"CCc1cccc2cc(O)cc(-c3ncc4c(N5CC6CCC(C5)N6)nc(OCCN5CCC[C@H](CN6CCN(c7cc([C@H](C(=O)N8C[C@H](O)C[C@H]8C(=O)N[C@@H](C)c8ccc(-c9scnc9C)cc8)C(C)C)on7)CC6)C5)nc4c3F)c12 [Compound 243, (2S,4R)-1-[(2R)-2-[3-[4-[(3R)-1-[2-[[4-(3,8-diazabicyclo[3.2.1]octan-3-yl)-7-(8-ethyl-3-hydroxy-1-naphthyl)-8-fluoro-pyrido[4,3-d]pyrimidin-2-yl]oxyethyl]-3-piperidyl]methyl]piperazin-1-yl]isoxazol-5-yl]-3-methyl-butanoyl]-4-hydroxy-N-[(1S)-1-[4-(4-methylthiazol-5-yl)phenyl]ethyl]pyrrolidine-2-carboxamide]",80 to 100%,< 600 nM
"CCc1cccc2cc(O)cc(-c3ncc4c(N5CC6CCC(C5)N6)nc(OC[C@@H]5CN(CC6CN(c7cc([C@@H](C(=O)N8C[C@H](O)C[C@H]8C(=O)N[C@@H](C)c8ccc(-c9scnc9C)cc8)C(C)C)on7)C6)CCN5C)nc4c3F)c12 [Compound 164, (2S,4R)-1-[(2S)-2-[3-(3-{[(3S)-3-{[(4-{3,8-diazabicyclo[3.2.1]octan-3-yl}-7-(8-ethyl-3-hydroxynaphthalen-1-yl)-8-fluoropyrido[4,3-d]pyrimidin-2-yl)oxy]methyl}-4-methylpiperazin-1-yl]methyl}azetidin-1-yl)-1,2-oxazol-5-yl]-3-methylbutanoyl]-4-hydroxy-N-[(1S)-1-[4-(4-methyl-1,3-thiazol-5-yl)phenyl]ethyl]pyrrolidine-2-carboxamide]",20 to 60%,> 3000 nM
"CCc1cccc2cc(O)cc(-c3ncc4c(N5CC6CCC(C5)N6)nc(OCCN5CCC6(CC5)CN(c5cc([C@@H](C(=O)N7C[C@H](O)C[C@H]7C(=O)NCc7ccc(-c8scnc8C)cc7)C(C)C)on5)C6)nc4c3F)c12 (relative stereo) [Compound 99, (2S,4R)-1-[(2R*)-2-[3-(7-{2-[(4-{3,8-diazabicyclo[3.2.1]octan-3-yl}-7-(8-ethyl-3-hydroxynaphthalen-1-yl)-8-fluoropyrido[4,3-d]pyrimidin-2-yl)oxy]ethyl}-2,7-diazaspiro[3.5]nonan-2-yl)-1,2-oxazol-5-yl]-3-methylbutanoyl]-4-hydroxy-N-{[4-(4-methyl-1,3-thiazol-5-yl)phenyl]methyl}pyrrolidine-2-carboxamide]",20 to 60%,> 3000 nM
"CCc1cccc2cc(O)cc(-c3ncc4c(N5CC6CCC(C5)N6)nc(OC[C@@]56CCCN5[C@H](COC(=O)N5CCC(Oc7cc([C@@H](C(=O)N8C[C@H](O)C[C@H]8C(=O)N[C@@H](C)c8ccc(-c9scnc9C)cc8)C(C)C)on7)CC5)CC6)nc4c3F)c12 [Compound 118, [(3S,7aS)-7a-{[(4-{3,8-diazabicyclo[3.2.1]octan-3-yl}-7-(8-ethyl-3-hydroxynaphthalen-1-yl)-8-fluoropyrido[4,3-d]pyrimidin-2-yl)oxy]methyl}-hexahydro-1H-pyrrolizin-3-yl]methyl 4-({5-[(2S)-1-[(2S,4R)-4-hydroxy-2-{[(1S)-1-[4-(4-methyl-1,3-thiazol-5-yl)phenyl]ethyl]carbamoyl}pyrrolidin-1-yl]-3-methyl-1-oxobutan-2-yl]-1,2-oxazol-3-yl}oxy)piperidine-1-carboxylate]",20 to 60%,600 to 1000 nM
"CCc1cccc2cc(O)cc(-c3ncc4c(N5CCCCCC5)nc(OC[C@]56CCCN5[C@H](COc5cc([C@@H](C(=O)N7C[C@H](O)C[C@H]7C(=O)N[C@@H](C)c7ccc(-c8scnc8C)cc7)C(C)C)on5)CC6)nc4c3F)c12 [Compound 207, (2S,4R)-1-[(2S)-2-(3-{[(3S,7aR)-7a-({[4-(azepan-1-yl)-7-(8-ethyl-3-hydroxynaphthalen-1-yl)-8-fluoropyrido[4,3-d]pyrimidin-2-yl]oxy}methyl)-hexahydro-1H-pyrrolizin-3-yl]methoxy}-1,2-oxazol-5-yl)-3-methylbutanoyl]-4-hydroxy-N-[(1S)-1-[4-(4-methyl-1,3-thiazol-5-yl)phenyl]ethyl]pyrrolidine-2-carboxamide]",,> 3000 nM
